According to patent EP3628672A1 (priority 2018, dated 2020):

Each compound was assayed against T1, purified LasB protein from P. aeruginosa (Pseudomonas aeruginosa, UniProt P14756) (assay: Fluorometric assay to determine Ki (Abz-Ala-Gly-Leu-Ala-p-Nitro-Benzyl-Amide substrate)). Details: not given.
T1 construct: purchased Merck or Charles River Laboratories
T1 sequence (P14756 198-498): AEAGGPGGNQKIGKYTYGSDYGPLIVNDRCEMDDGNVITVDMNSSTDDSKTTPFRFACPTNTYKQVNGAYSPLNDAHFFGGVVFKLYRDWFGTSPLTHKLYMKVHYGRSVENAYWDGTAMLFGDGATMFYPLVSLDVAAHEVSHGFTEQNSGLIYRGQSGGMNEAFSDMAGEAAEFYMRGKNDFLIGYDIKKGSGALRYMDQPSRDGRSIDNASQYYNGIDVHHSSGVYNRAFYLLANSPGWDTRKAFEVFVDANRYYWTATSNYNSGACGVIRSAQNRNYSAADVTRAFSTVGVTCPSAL
Format: biochemical
Description: Experiments were therefore conducted (1) to measure the potency of inhibition of compounds of the invention against purified Pseudomonas aeruginosa LasB enzyme and also experiments were conducted (2) to measure the ability of compounds of the invention to inhibit LasB-catalysed elastin degradation. The first assay uses a commercial fluorescent synthetic peptide and purified LasB enzyme. The LasB hydrolysis kinetics are measured allowing the determination of the IC50 and Ki of the inhibitors; the second is a more physiological assay using dialysed Pseudomonas aeruginosa supernatant as source of enzyme, plus its natural substrate Elastin. It is an "end point assay" that determines the percentage of LasB inhibition by each compound for one particular time point and inhibitor concentration. Technical details are described below:
This assay uses commercially available substrate (Abz-Ala-Gly-Leu-Ala-p-Nitro-Benzyl-Amide (Ex: 340 nm, Em: 415 nm) from Peptide International) and purified LasB protein from P. aeruginosa (provided by Merck or Charles River Laboratories). It is performed to determine LasB elastase activity and assess compound inhibition in 96-well plate format. All compounds of Formula (I) were assessed using the method described below.
Method: 10 to 140 ng/ml purified LasB is incubated with 250 µM Abz-Ala-Gly-Leu-Ala-p-Nitro-Benzyl-Amide in 50 mM Tris-HCl pH 7.4, 2.5 mM CaCl2, 0.01% of Triton X100 at 37°C. LasB activity (corresponding to fluorescence emission induced by substrate hydrolysis) is measured over 30 min at 37°C with a fluorescence plate reader such as the Perkin Elmer Envision or similar. Different range of inhibitor concentrations are routinely assessed depending of inhibitor potency from 0.0016 to 200 µM (2-fold dilutions series) in order to determine IC50.
The equation used to calculate the Ki from IC50 is: Ki = IC50 / (1+([S]/Km)) where [S] = 250 µM and Km = 214 µM.
Compound `O=C(O)CC1(C(=O)NCc2nc3ccccc3s2)Cc2cc(Cl)c(Cl)cc2C1` [Example 4, 2-(2-((benzo[d]thiazol-2-ylmethyl)carbamoyl)-5,6-dichloro-2,3-dihydro-1H-inden-2-yl)acetic acid] has a Ki of 200 to 10000 nM. `CN(C)C1CCN(C(=O)c2ccc(-c3csc(CNC(=O)C4(CC(=O)O)Cc5ccccc5C4)n3)cc2)CC1` [Example 17, 2-[2-[[4-[4-[4-(dimethylamino)piperidine-1-carbonyl]phenyl]thiazol-2-yl]methylcarbamoyl]indan-2-yl] acetic acid] was tested, and the Ki was 200 to 10000 nM. For `CN(C)[C@H]1CCN(C(=O)c2ccc(-c3csc(CNC(=O)C4(CC(=O)O)Cc5ccccc5C4)n3)cc2)C1` [Example 18, 2-[2-[[4-[4-[(3S)-3-(dimethylamino)pyrrolidine-1-carbonyl]phenyl]thiazol-2-yl]methylcarbamoyl]indan-2-yl]acetic acid], the Ki was 200 to 10000 nM. `CN(C)CCCNC(=O)c1ccccc1-c1csc(CNC(=O)C2(CC(=O)O)Cc3ccccc3C2)n1` [Example 21, 2-[2-[[4-[2-[3-(dimethylamino)propylcarbamoyl]phenyl]thiazol-2-yl]methylcarbamoyl]indan-2-yl]acetic acid] gave a Ki of 200 to 10000 nM. For `C[N+]1(C)CCN(C(=O)c2ccc(-c3csc(CNC(=O)C4(CC(=O)[O-])Cc5ccccc5C4)n3)cc2)CC1` [Example 22, 2-[2-[[4-[4-(4,4-dimethylpiperazin-4-ium-1-carbonyl)phenyl]thiazol-2-yl]methylcarbamoyl]indan-2-yl]acetate], the Ki was 200 to 10000 nM. Work on `COc1ccc(C(=O)NCCN(C)C)cc1-c1csc(CNC(=O)C2(CC(=O)O)Cc3ccccc3C2)n1` [Example 24, 2-[2-[[4-[5-[2-(dimethylamino)ethylcarbamoyl]-2-methoxy-phenyl]thiazol-2-yl]methylcarbamoyl]indan-2-yl]acetic acid] yielded a Ki of 200 to 10000 nM. For `COc1ccc(C(=O)N2CCN(C)CC2)cc1-c1csc(CNC(=O)C2(CC(=O)O)Cc3ccccc3C2)n1` [Example 25, 2-[2-[[4-[2-methoxy-5-(4-methylpiperazine-1-carbonyl)phenyl)thiazol-2-yl]methylcarbamoyl]indan-2-yl]acetic acid], the Ki was 200 to 10000 nM. Work on `CN(C)C1CN(c2cccc(-c3csc(CNC(=O)C4(CC(=O)O)Cc5ccccc5C4)n3)c2)C1` [Example 29, 2-[2-[[4-[3-[3-(dimethylamino)azetidin-1-yl]phenyl]thiazol-2-yl]methylcarbamoyl]indan-2-yl]acetic acid] yielded a Ki of 200 to 10000 nM. `C[N+](C)(C)CC(=O)Nc1ccc(-c2csc(CNC(=O)C3(CC(=O)[O-])Cc4ccccc4C3)n2)cc1` [Example 40, 2-[2-[[4-[4-[[2-(trimethylammonio)acetyl]amino]phenyl]thiazol-2-yl]methylcarbamoyl]indan-2-yl] acetate] showed a Ki of 200 to 10000 nM. In the case of `CN(C)CC(=O)Nc1cccc(-c2csc(CNC(=O)C3(CC(=O)O)Cc4ccccc4C3)n2)c1` [Example 41, 2-[2-[[4-[3-[[2-(dimethylamino)acetyl]amino]phenyl]thiazol-2-yl]methylcarbamoyl]indan-2-yl]acetic acid], the Ki is reported as 200 to 10000 nM. `C[N+](C)(C)CC(=O)Nc1cccc(-c2csc(CNC(=O)C3(CC(=O)[O-])Cc4ccccc4C3)n2)c1` [Example 42, 2-[2-[[4-[3-[[2-(trimethylammonio)acetyl]amino]phenyl]thiazol-2-yl]methylcarbamoyl]indan-2-yl] acetate] was tested, and the Ki was 200 to 10000 nM. Compound `CN(C)CCOc1ccc(-c2csc(CNC(=O)C3(CC(=O)O)Cc4ccccc4C3)n2)cc1` [Example 48, 2-[2-[[4-[4-[2-(dimethylamino)ethoxy]phenyl]thiazol-2-yl]methylcarbamoyl]indan-2-yl]acetic acid] has a Ki of 200 to 10000 nM. In the case of `NC1CCN(C(=O)COc2ccc(-c3csc(CNC(=O)C4(CC(=O)O)Cc5ccccc5C4)n3)cc2)CC1` [Example 52, 2-[2-[[4-[4-[2-(4-amino-1-piperidyl)-2-oxo-ethoxy]phenyl]thiazol-2-yl]methylcarbamoyl]indan-2-yl]acetic acid], the Ki is reported as 50 to 200 nM. For `CN(C)CCOc1cccc(-c2csc(CNC(=O)C3(CC(=O)O)Cc4ccccc4C3)n2)c1` [Example 53, 2-[2-[[4-[3-[2-(dimethylamino)ethoxy]phenyl]thiazol-2-yl]methylcarbamoyl]indan-2-yl]acetic acid], the Ki was 200 to 10000 nM. Compound `CN(C)CCn1cc(-c2csc(CNC(=O)C3(CC(=O)O)Cc4ccccc4C3)n2)cn1` [Example 97, 2-[2-[[4-[1-[2-(dimethylamino)ethyl]pyrazol-4-yl]thiazol-2-yl]methylcarbamoyl]indan-2-yl]acetic acid] has a Ki of 200 to 10000 nM. With `CC(=O)N1CC[N+](C)(CCCn2cc(-c3csc(CNC(=O)C4(CC(=O)[O-])Cc5ccccc5C4)n3)cn2)CC1` [Example 107, 2-[2-[[4-[1-[3-(4-acetyl-1-methyl-piperazin-1-ium-1-yl)propyl]pyrazol-4-yl]thiazol-2-yl]methylcarbamoyl]indan-2-yl]acetate] the Ki was 200 to 10000 nM. For `O=C(O)CC1(C(=O)NCc2nc(-c3cnn(CCCN4CCCCC4)c3)cs2)Cc2ccccc2C1` [Example 111, 2-[2-[[4-[1-[3-(1-piperidyl)propyl]pyrazol-4-yl]thiazol-2-yl]methylcarbamoyl]indan-2-yl]acetic acid], the Ki was 200 to 10000 nM. For `CN(C)C(=O)C1CCN(CCCn2cc(-c3csc(CNC(=O)C4(CC(=O)O)Cc5ccccc5C4)n3)cn2)CC1` [Example 113, 2-[2-[[4-[1-[3-[4-(dimethylcarbamoyl)-1-piperidyl]propyl]pyrazol-4-yl]thiazol-2-yl]methylcarbamoyl]indan-2-yl]acetic acid], the Ki was 200 to 10000 nM. For `C[n+]1ccc(CCn2cc(-c3csc(CNC(=O)C4(CC(=O)[O-])Cc5ccccc5C4)n3)cn2)cc1` [Example 117, 2-[2-[[4-[1-[2-(1-methylpyridin-1-ium-4-yl)ethyl]pyrazol-4-yl]thiazol-2-yl]methylcarbamoyl]indan-2-yl]acetate], the Ki was 200 to 10000 nM. `C[n+]1ccc(CCCn2cc(-c3csc(CNC(=O)C4(CC(=O)[O-])Cc5ccccc5C4)n3)cn2)cc1` [Example 118, 2-[2-[[4-[1-[3-(1-methylpyridin-1-ium-4-yl)propyl]pyrazol-4-yl]thiazol-2-yl]methylcarbamoyl]indan-2-yl]acetate] showed a Ki of 200 to 10000 nM. Compound `CN(C)CCNS(=O)(=O)c1ccc(-c2csc(CNC(=O)C3(CC(=O)O)Cc4ccccc4C3)n2)cc1` [Example 131, 2-[2-[[4-[4-[2-(dimethylamino)ethylsulfamoyl]phenyl]thiazol-2-yl]methylcarbamoyl]indan-2-yl]acetic acid] has a Ki of 200 to 10000 nM. `CN1CCN(C(=O)c2cncc(-c3csc(CNC(=O)C4(CC(=O)O)Cc5ccccc5C4)n3)c2)CC1` [Example 144, 2-[2-[[4-[5-(4-methylpiperazine-1-carbonyl)-3-pyridyl]thiazol-2-yl]methylcarbamoyl]indan-2-yl]acetic acid] gave a Ki of 200 to 10000 nM.

Same assay, conditions: Ki calculated from IC50, [S] = 250 µM, Km = 214 µM; 37°C, pH 7.4
`C[N+]1(CCCn2cc(-c3csc(CNC(=O)C4(CC(=O)[O-])Cc5ccccc5C4)n3)cn2)CCOCC1` [Example 100, 2-[2-[[4-[1-[3-(4-methylmorpholin-4-ium-4-yl)propyl]pyrazol-4-yl]thiazol-2-yl]methylcarbamoyl]indan-2-yl]acetate] was tested, and the Ki was 200 to 10000 nM. `C[N+]1(C)CCC(C(=O)N2CC[N+](C)(CCCn3cc(-c4csc(CNC(=O)C5(CC(=O)O)Cc6ccccc6C5)n4)cn3)CC2)CC1` [Example 115, 2-[2-[[4-[1-[3-[4-(1,1-dimethylpiperidin-1-ium-4-carbonyl)-1-methyl-piperazin-1-ium-1-yl]propyl]pyrazol-4-yl]thiazol-2-yl]methylcarbamoyl]indan-2-yl] acetate] showed a Ki of 200 to 10000 nM.
